Assay results published in patent US7192931B2, “Treatment of demyelinating diseases” (Neuren Pharmaceuticals Ltd., priority 2000, dated 2007).

Tests used:
Assay type in all cases: in vivo, mouse
[1] = system: dephosphorylated neurofilament-H; test: Axonal damage: dephosphorylated neurofilament-H in spinal cord (Western blot, immunohistochemistry); settings: for average relative densities of neurofilament-H: spinal cord homogenates, Western blot, 6.1 for rat IgG or PBS treated control mice; for effect on amount of axonal damage: spinal cord, dephosphorylated neurofilament-H
From the text: (§1) Frozen sections from lumbar spinal cord (10 μm) were acetone-fixed and immunostained for oligodendrocyte content with an antibody against CNPase (Sigma; diluted 1:100); for axonal damage with an antibody against non-phosphorylated neurofilament-H (SM 1-32; Stemberger Monoclonals Incorporated, Lutherville, Md., USA; diluted 1:1000), and for GluR2 and NR1 content using mouse mAbs obtained from Zymed Laboratories Inc., Carlton, San Francisco, Calif. Antibody staining was visualized with an avidin:biotinylated enzyme complex (Vector Laboratories, Burlingame, Calif., USA). Sections were viewed under a light microscope, and cells stained with the anti-CNPase and SM 1-32 antibodies were counted.
PBS-perfused spinal cords were homogenized in lysis buffer (50 mM Tris pH 7.4, 100 μM EDTA, 0.25 M sucrose, 1% sodium dodecyl sulfate [SDS], 1% Nonidet P-40 [NP40], 1 μg/mL leupeptin, 1 μg/mL pepstatin A, and 100 μM phenylmethylsulfonylfluoride) at 4° C. using a motor-driven homogenizer (Virtus, Gardiner, N.Y.). Spinal cord lysates from each group of mice were pooled and centrifuged at 10000 g for 10 minutes at 4° C. to remove tissue debris. Protein concentrations of the supernatants were determined as described (Peterson, 1983), and 100 μg of protein resolved on 10% polyacrylamide SDS-gels under reducing conditions and then electrophoretically transferred to Hybond C Extra nitrocellulose membranes (Amersham Life Science, England). The membranes were blocked with 3% bovine serum albumin in TBS-T (20 mM Tris, 137 mM NaCl, pH 7.6 containing 0.1% Tween-20) for 2 hours at room temperature. Immunodetection was accomplished by incubation overnight at 4° C. with SM1-32 (1:500 dilution), anti-CNPase (1:100 dilution) antibody, or anti-GluR2 and NR1 mAbs (1:200 dilution). The membranes were washed thrice with TBS-T and incubated with horseradish peroxidase-conjugated anti-mouse IgG (Sigma) diluted 1:5000 in TBS-T. Immunoreactivity was detected by Enhanced Chemiluminescence (Amersham International plc. England) and autoradiography.

[2] = system: NMDA receptor subunit NR1; test: NMDA receptor subunit NR1 expression in spinal cord; settings: spinal cord of EAE mice, immunohistochemistry and Western blot
From the text: as §1
PBS-perfused spinal cords were homogenized in lysis buffer (50 mM Tris pH 7.4, 100 μM EDTA, 0.25 M sucrose, 1% sodium dodecyl sulfate [SDS], 1% Nonidet P-40 [NP40], 1 μg/mL leupeptin, 1 μg/mL pepstatin A, and 100 μM phenylmethylsulfonylfluoride) at 4° C. using a motor-driven homogenizer (Virtus, Gardiner, N.Y.). […] Protein concentrations of the supernatants were determined as described (Peterson, 1983), and 100 μg of protein resolved on 10% polyacrylamide SDS-gels under reducing conditions and then electrophoretically transferred to Hybond C Extra nitrocellulose membranes (Amersham Life Science, England). […]

[3] = system: C57Bl/6 mice with MOG35-55 peptide-induced EAE; test: Neuropathology scoring of spinal cord sections (pathology status scale); settings: for Pathology status scale: Oligodendrocytes** / Pathology status scale: Remyelination**: reverse scores; for Pathology status scale: Axonal damage / Pathology status scale: Demyelination / Pathology status scale: Inflammation: scored 0 to 5; for Total scores After treatment (pathology status scale): sum over the six pathology parameters after treatment; for cumulative scores for inflammation, demyelination, remyelination, apoptosis, oligodendrocyte loss, and axonal damage following treatment: text statement of Table 2 totals
Experimental: C57Bl/6 mice (8–10 week old) were injected subcutaneously in one flank with 300 μg of MOG35-55 peptide ([…]: SEQ ID NO:1) synthesized by Mimotapes Pty Ltd, Clayton, Australia and emulsified in CFA containing 500 μg of Mycobacterium tuberculosis H37Ra (DIFCO Laboratories, Detrit, USA). They also received 500 ng of pertussis toxin (List Biological Laboratories, CA, USA) in 200 μl PBS intravenously via the tail vein, followed 48 hours later by a second dose. A second injection of MOG peptide was given in the absence of pertussis toxin one week later in the opposite flank, as described previously (Kanwar et al., 2000b).
Two treatment protocols were employed, involving the treatment of early disease, versus advanced disease. For early disease, reagents were administered at day 35 (following MOG injection). Antibody was administered thrice on alternate days, whereas neuroprotectors were given daily for 6 days, where 50% of reagent was given ip and 50% iv. In the treatment of advanced disease, therapy as above was initiated at day 60, with either three or eight anti-MAdCAM-1 mAb injections, and neuroprotectors given daily for either 7 or 18 days.
Mice were perfused through the left cardiac ventricle with ice-cold PBS or glutaraldehyde, and the CNS including brain and spinal cord were prepared for frozen or epoxy sections, respectively. Thin slices were taken at all levels of the CNS including spinal cord (cervical, midthoracic, T11, T12/13, upper lumbar, L6, L7 and sacral) and sacral roots. One-μm thick epoxy sections taken from different levels of the spinal cord were stained with toluidine blue, and examined by light microscopy by an investigator blinded to the sample identity. Multiple sections from the spinal cord were scored from 0 to 5 for inflammation, demyelination, remyelination, and axonal necrosis or damage, using a previously published scoring system (Moore et al., 2000).

oligodendrocytes = test: Oligodendrocyte loss by CNPase immunostaining of dorsal columns; settings: 31 for rat IgG and 26 for PBS treated control mice
From the text: as §1
To evaluate the effects of the different treatment regimes on the loss of oligodendrocytes, a key cellular target in demyelinating diseases of the CNS, oligodendrocytes were enumerated by immunohistochemical staining of spinal cord sections and the number of oligodendrocytes within the dorsal columns of […] transverse sections were counted (FIG. 5B), and reductions in oligodendrocyte numbers were calculated and expressed as % loss of oligodendrocytes per dorsal section (FIG. 5C). […]

`NS(=O)(=O)c1cccc2c1c([N+](=O)[O-])cc1nc(O)c(O)nc12` [NBQX, 2,3-dihydroxy-6-nitro-7-sulfamoylbenzo(f)quinoxaline] was tested, and the “average relative densities of neurofilament-H” value [1] was 3.5, the “effect on amount of axonal damage” value [1] was “almost halved the amount of axonal damage” and the “NMDA receptor (NR1 subunit) expression” value [2] was “caused down-regulation of the NMDA receptor”. The “Pathology status scale: Apoptosis” value ([3]; day 45) was 2, the “Pathology status scale: Oligodendrocytes**” value ([3]; day 45) was 2 and the “Pathology status scale: Remyelination**” value ([3]; day 45) was 3. The “Pathology status scale: Axonal damage” value ([3]; day 45) was 2, the “Pathology status scale: Demyelination” value ([3]; day 45) was 2 and the “Pathology status scale: Inflammation” value ([3]; day 45) was 3. For the same compound, the “Pathology status scale: Apoptosis” value ([3]; day 60) was 3, the “Pathology status scale: Oligodendrocytes**” value ([3]; day 60) was 3 and the “Pathology status scale: Remyelination**” value ([3]; day 60) was 2. For the same compound, the “Pathology status scale: Axonal damage” value ([3]; day 60) was 3, the “Pathology status scale: Demyelination” value ([3]; day 60) was 3 and the “Pathology status scale: Inflammation” value ([3]; day 60) was 3. For the same compound, the “Pathology status scale: Apoptosis” value ([3]; day 65) was 2, the “Pathology status scale: Oligodendrocytes**” value ([3]; day 65) was 2 and the “Pathology status scale: Remyelination**” value ([3]; day 65) was 2. For the same compound, the “Pathology status scale: Axonal damage” value ([3]; day 65) was 1, the “Pathology status scale: Demyelination” value ([3]; day 65) was 2 and the “Pathology status scale: Inflammation” value ([3]; day 65) was 2. The “Pathology status scale: Apoptosis” value ([3]; day 70) was 1, the “Pathology status scale: Oligodendrocytes**” value ([3]; day 70) was 1 and the “Pathology status scale: Remyelination**” value ([3]; day 70) was 2. For the same compound, the “Pathology status scale: Axonal damage” value ([3]; day 70) was 1, the “Pathology status scale: Demyelination” value ([3]; day 70) was 1 and the “Pathology status scale: Inflammation” value ([3]; day 70) was 2. For the same compound, the “Pathology status scale: Apoptosis” value ([3]; day 119) was 2, the “Pathology status scale: Oligodendrocytes**” value ([3]; day 119) was 2 and the “Pathology status scale: Remyelination**” value ([3]; day 119) was 1. For the same compound, the “Pathology status scale: Axonal damage” value ([3]; day 119) was 2, the “Pathology status scale: Demyelination” value ([3]; day 119) was 2 and the “Pathology status scale: Inflammation” value ([3]; day 119) was 1. The “Total scores After treatment (pathology status scale)” value [3] was 46, the “cumulative scores for inflammation, demyelination, remyelination, apoptosis, oligodendrocyte loss, and axonal damage following treatment” value [3] was 46 and the “% loss of oligodendrocytes per dorsal section” value (oligodendrocytes) was 13%.

With Gly-Pro-Glu [GPE] the “average relative densities of neurofilament-H” value [1] was 3.2, the “effect on amount of axonal damage” value [1] was “almost halved the amount of axonal damage” and the “NMDA receptor (NR1 subunit) expression” value [2] was “not effective”. The “Pathology status scale: Apoptosis” value ([3]; day 45) was 3, the “Pathology status scale: Oligodendrocytes**” value ([3]; day 45) was 3 and the “Pathology status scale: Remyelination**” value ([3]; day 45) was 2. For the same compound, the “Pathology status scale: Axonal damage” value ([3]; day 45) was 3, the “Pathology status scale: Demyelination” value ([3]; day 45) was 3 and the “Pathology status scale: Inflammation” value ([3]; day 45) was 2. For the same compound, the “Pathology status scale: Apoptosis” value ([3]; day 60) was 3, the “Pathology status scale: Oligodendrocytes**” value ([3]; day 60) was 3 and the “Pathology status scale: Remyelination**” value ([3]; day 60) was 3. The “Pathology status scale: Axonal damage” value ([3]; day 60) was 3, the “Pathology status scale: Demyelination” value ([3]; day 60) was 3 and the “Pathology status scale: Inflammation” value ([3]; day 60) was 3. The “Pathology status scale: Apoptosis” value ([3]; day 65) was 2, the “Pathology status scale: Oligodendrocytes**” value ([3]; day 65) was 2 and the “Pathology status scale: Remyelination**” value ([3]; day 65) was 2. The “Pathology status scale: Axonal damage” value ([3]; day 65) was 2, the “Pathology status scale: Demyelination” value ([3]; day 65) was 2 and the “Pathology status scale: Inflammation” value ([3]; day 65) was 2. The “Pathology status scale: Apoptosis” value ([3]; day 70) was 3, the “Pathology status scale: Oligodendrocytes**” value ([3]; day 70) was 2 and the “Pathology status scale: Remyelination**” value ([3]; day 70) was 2. For the same compound, the “Pathology status scale: Axonal damage” value ([3]; day 70) was 3, the “Pathology status scale: Demyelination” value ([3]; day 70) was 3 and the “Pathology status scale: Inflammation” value ([3]; day 70) was 2. For the same compound, the “Pathology status scale: Apoptosis” value ([3]; day 119) was 2, the “Pathology status scale: Oligodendrocytes**” value ([3]; day 119) was 2 and the “Pathology status scale: Remyelination**” value ([3]; day 119) was 1. For the same compound, the “Pathology status scale: Axonal damage” value ([3]; day 119) was 2, the “Pathology status scale: Demyelination” value ([3]; day 119) was 2 and the “Pathology status scale: Inflammation” value ([3]; day 119) was 1. The “Total scores After treatment (pathology status scale)” value [3] was 55, the “cumulative scores for inflammation, demyelination, remyelination, apoptosis, oligodendrocyte loss, and axonal damage following treatment” value [3] was 55 and the “% loss of oligodendrocytes per dorsal section” value (oligodendrocytes) was 14%.
